Like-named read-outs stand apart in the source and are kept apart here.
How the values were obtained:
[1] = tested on: AM (RA-treated hiPS-CMs, atrial-like); experiment: High-throughput membrane potential recording (FluoVolt, FDSS/μCell) in AM; type: cell-based, human
Method: (§1) Using a high-throughput screening system (FDSS/μCell), we assessed the drug toxicity of several experimental drugs on hiPS-derived atrial myocytes as well as control hiPS-derived cardiomyocytes. Membrane potential was used as one of the parameters during the assessment.
(§2) After purification, hiPS-derived cardiomyocytes were plated in 96-well plates for downstream drug response assessment using FluoVolt™ Membrane Potential Kit. […] The comparison of variance in the response of drug administration in CT and AM was represented by the percentage of changes based on their baseline values respectively.
(§3) FluoVolt™ Membrane Potential Kit (ThermoFisher […], F10488, Massachusetts, United States) was used to measure membrane potentials. The basic procedure was performed in accordance with the manufacturer’s instructions. […] MP were recorded at excitation and emission stages at wavelengths of 470 and 540 nm, respectively. […] Stock solutions of the test compounds were prepared in 100% DMSO, and serially diluted 1/40 into compound plates for testing (0.5% DMSO was the maximum concentration in all wells). The compounds were automatically pipetted from the compound plate, and 12 μL was loaded in the wells already containing the cells with 48 μL of media. Recording data were analyzed using Waveform Analysis of Cardiomyocyte Software (Ver.1.2.1J, Hamamatsu Photonics K.K.). Data values for a well were averaged from waveforms that arose during 30 s. The beat rate (BR; beats per minute), waveform amplitude (AMP), and duration at 30, 50, and 80% of decay (PWD30, PWD 50, and PWD 80, respectively) were used as evaluation parameters. PWDs were corrected using the Fridericia formula. PWD30-80 was calculated as the difference between PWD80 and PWD30. Each parameter was calculated as percentage change (%) from the value before test compound addition.

[2] = tested on: CT (control hiPS-CMs without RA, ventricular-like); experiment: High-throughput membrane potential recording (FluoVolt, FDSS/μCell) in CT; type: cell-based, human
Method: as §1, §2, §3

[3] = % change from value before compound addition, 10 min after addition (Bay K 8644: 3 min)
[4] = concentration range as stated in the source

Row | SMILES | membrane potential duration (in words) [1] | PWD30cF [1, 3] | Rising Slope [1, 3] | rising slope of membrane potential (in words) [1, 4] | membrane potential duration (in words) [2] | Falling Slope [2, 3] | PWD30cF [2, 3] | PWD80cF [2, 3] | PWD80cF [1, 3] | falling slope of membrane potential (in words) [2, 4] | Beat Rate [1, 3] | beating rate (in words) [1, 4] | also measured
1 | CCS(=O)(=O)N(C)[C@H]1c2cc(C#N)ccc2OC(C)(C)[C@@H]1O (racemic) [Chromanol 293B] | increase | ↑ | ↓ | dose-dependent decrease | increase | ↓ | ↑ | ↑ | – | – | – | – | Rising Slope [2, 3]: ↓; rising slope of membrane potential (in words) [2, 4]: dose-dependent decrease
2 | Nc1ccncc1 [4-Aminopridine, 4-Aminopyridine] | – | ↑ | – | – | – | – | ↑ | – | ↑ | – | – | – | PWD30cF (in words) ([1]; listed as 4-AP): dose-dependent increases; PWD50cF (in words) ([1]; listed as 4-AP): dose-dependent increases; PWD30cF (in words) ([1]; listed as 4AP): prolongation; PWD50cF (in words) ([1]; listed as 4AP): prolongation
3 | COC(=O)C1=C(C)NC(C)=C([N+](=O)[O-])C1c1ccccc1C(F)(F)F (centres unmarked) [Bay K 8644] | prolonged | ↑ | ↑ | – | prolonged | ↓ | ↑ | ↑ | ↑ | dose-dependent decrease | – | – | PWD30cF (in words) [1]: prolonged; Falling Slope [1, 3]: ↓; falling slope of membrane potential (in words) [1, 4]: dose-dependent decrease; PWD30cF (in words) ([1]; listed as Bay K8644): prolonged significantly; PWD30cF (in words) [2]: prolonged; PWD30cF (in words) ([2]; listed as Bay K8644): prolonged significantly
4 | C[N+](C)(C)CCOC(N)=O [Carbachol] | – | – | ↓ | decrease | – | – | – | – | – | – | ↓ | decrease | EAD / irregular beating (in words) [1]: No irregular beating or EAD was elicited; EAD / irregular beating (in words) ([1]; listed as carbachol): caused irregular beats early after application; EAD / irregular beating (in words) [2]: No irregular beating or EAD was elicited; response of membrane potential parameters (in words) [2]: no significant difference was observed
5 | COc1ccc([C@@H]2Sc3ccccc3N(CCN(C)C)C(=O)[C@@H]2OC(C)=O)cc1 [Diltiazem] | – | ↓ | – | – | decreased | ↑ | ↓ | ↓ | – | dose-dependent increases | ↑ | dose-dependent increase | other parameters of membrane potential (in words) [1]: no obvious changes were observed; cessation of beating (samples) ([1]; 0.1 μM doses): all the AM samples; incidence of arrhythmia-like waveforms: arrest ([1]; 1 μM): 100%; arrest of spontaneous beating (samples) ([1]; at the maximal concentration): all the tested samples; beating rate (in words) [2, 4]: dose-dependent increases

— publication PMC8369502, “High-Throughput Drug Screening System Based on Human Induced Pluripotent Stem Cell-Derived Atrial Myocytes ∼ A Novel Platform to Detect Cardiac Toxicity for Atrial Arrhythmias” (Frontiers in Pharmacology, 2021)
